Laboratory results published in US20230346948A1, “Lipid conjugated peptide inhibitors of PICK1” (University of Copenhagen, priority 2020, published 2023).
Where two headings read alike, the source gives them in different places.

Legend:
[1] = Size exclusion chromatography, self-assembly in solution; format: physicochemical; settings: Superdex200 Increase 10/300
Experimental: Size exclusion chromatography: Size exclusion chromatography was done using an Äkta purifier with a Superdex200 Increase 10/300 column, where 500 μL of […] or […] at the indicated concentration was injected onto the column. Absorbance profile was measured at 280 nm and plotted against elution volume using Graph Pad Prism 8.3.

[2] = test system: neuropathic pain (SNI model); test: Spared Nerve Injury (SNI) model of neuropathic pain, von Frey; format: in vivo, mice; settings: for relief of evoked pain (paw withdrawal threshold): day 7 after SNI, tested 1-6 h
Experimental: Neuropathic pain. The SNI pain experiment was performed by Phenotype Expertise-Pain and CNS behaviour CRO under supervision of […]). Study was performed on 8 weeks old […] male mice (Charles River). The spared nerve injury surgery was performed on anaesthetized mice. Ligature and transection of the common peroneal and tibial distal branches of the sciatic nerve was performed, leaving the sural branch intact. […] The experimenter was blinded to mice treatment. […] All the compounds were diluted in PBS and administered s.c. at 10 μL/g. Statistical analysis was performed using GraphPad Prism 6.0. Two-way RM ANOVA followed by Bonferroni's post-hoc test. Significance level set to p<0.05. Neuropathic pain. Study was performed on 8 weeks old […] male mice (Charles River). The spared nerve injury surgery was performed on anaesthetized mice. Ligature and transection of the common peroneal and tibial distal branches of the sciatic nerve was performed, leaving the sural branch intact. […] The experimenter was blinded to mice treatment. […] All the compounds were diluted in PBS and administered 10 μmol/kg (10 μL/gram) […]. at 10 μL/g. Statistical analysis was performed using GraphPad Prism 6.0. Two-way RM ANOVA followed by Bonferroni's post-hoc test. Significance level set to p<0.05. Neuropathic pain. Study was performed on 8 weeks old […] male mice (Charles River). The spared nerve injury surgery was performed on anaesthetized mice. Ligature and transection of the common peroneal and tibial distal branches of the sciatic nerve was performed, leaving the sural branch intact. […] The mice were testes in von Frey monthly and the hyperalgesic response at 52 weeks was sustained. […] The experimenter was blinded to mice treatment. After injection, mechanical threshold was measured, 2 and 5 hrs. All the compounds were diluted in PBS and administered s.c. at 10 μL/g, 30 μmol/kg. Statistical analysis was performed using GraphPad Prism 6.0.

[3] = Plasma exposure after s.c. injection, LC-MS; format: in vivo; settings: male, C57BL/6N, mouse, sc; for Cmax: at 1 h, read-out: maximal plasma concentration
Experimental: Three point on the down-slope was determined from 3 points on the elimination phase.

[4] = Chemical stability in PBS for 30 days, HPLC-UV-MS; format: physicochemical
Experimental: Stability was addressed by […] for four concentration 2, 20, 50 and 200 μM, by leaving […] in PBS at 5 and […] for 30 days followed by HPLC-UV-MS method

[5] = test system: thermal hypersensitivity (CFA model); test: Hargreaves test, thermal hypersensitivity in CFA model; format: in vivo, mice; settings: s.c. 10 μmol/kg
Experimental: Inflammatory pain (CFA model): Animals were habituated to the experimental room for a minimum of 60 min before initiation of the experiment. Hargreave's test was performed by application of radiant heat light to the plantar surface of both hindpaw. The response latency was measured by an automated readout (Ugo Basile, Italy). The baseline paw withdrawal latency of both hind paws in response to radiant heat stimulation was performed before CFA injection, and no difference between the two pre-selected groups was found. The inflammatory pain was induced by […] of 50 μL undiluted Complete Freund's Adjuvant (CFA) ([…], Sigma) unilaterally into the intraplantar surface of the right hind paw, whereas control mice were injected with the same amount of 0.9% saline (B. Braun, Germany). All intraplantar injections were performed with and insulin needle (0.3 mL BD Micro-Fine) while the animal was under isoflurane anesthesia (2%) for maximum 60 seconds. On day 3 after CFA injection, mice were placed in individual red cylinders (8 cm in diameter, 7.5 cm tall) and thermal hyperalgesia was confirmed by a baseline reading with IR of 20. Three measurements were performed on each hindpaw of each mouse. A positive trial was defined as sudden paw withdrawal, flinching and/or paw licking induced by the infrared light. Measurements were performed before CFA injection, and at 3+4 days after CFA injection. At day 3, the measurements were performed before treatment, as well as 1, 5 and 21 hours after treatment. Peptide and vehicle were administered s.c. (10 μL/g)), and at a concentration of 0 or 10 μmol/kg. Statistical analysis was performed using GraphPad Prism 6.0. Two-way RM ANOVA followed by Bonferroni's post-hoc test. Significance level set to p<0.05.

CCCCCCCCCCCCCC(=O)N(CCOCCOCCC(=O)N[C@@H](Cc1c[nH]cn1)C(=O)N[C@@H](Cc1c[nH]c2ccccc12)C(=O)N[C@@H](CC(C)C)C(=O)N[C@@H](CCCCN)C(=O)N[C@H](C(=O)O)C(C)C)CCOCCOCCC(=O)N[C@@H](Cc1c[nH]cn1)C(=O)N[C@@H](Cc1c[nH]c2ccccc12)C(=O)N[C@@H](CC(C)C)C(=O)N[C@@H](CCCCN)C(=O)N[C@H](C(=O)O)C(C)C [myr-NPEG4-(HWLKV)2]
SEC elution compared with unconjugated NPEG4-(HWLKV)2 [1]: eluted at lower elution volume
paw withdrawal threshold of uninjured contralateral paw ([2]; SNI model, Example 8): remained unaltered
relief of evoked pain (paw withdrawal threshold) ([2]; s.c. 2 μmol/kg): no significant pain relief
relief of evoked pain (paw withdrawal threshold) ([2]; s.c. 10 μmol/kg): significant pain relief up to 3 hours post injection
relief of evoked pain (paw withdrawal threshold), chronic pain ([2]; s.c. 30 μmol/kg, 52 weeks after SNI, tested 2 and 5 h): highly significant effect of the treatment at 5 hrs
Cmax ([3]; s.c. 3.75 mg/kg (2 μmol/kg)): 1450 ± 106 ng/mL
Cmax ([3]; s.c. 18.8 mg/kg (10 μmol/kg)): 6170 ± 508 ng/mL
Cmax ([3]; s.c. 93.8 mg/kg (50 μmol/kg)): 20300 ± 642 ng/mL
half-life ([3]; summary over doses): 30 to 45 min
Measured Conc. mPD5 ([4]; 30 days @5° C, nominal 2 μM): 0.5 µM
Measured Conc. mPD5 ([4]; 30 days @5° C, nominal 20 μM): 17 µM
Measured Conc. mPD5 ([4]; 30 days @5° C, nominal 50 μM): 49 µM
Measured Conc. mPD5 ([4]; 30 days @5° C, nominal 200 μM): 194 µM
Measured Conc. mPD5 ([4]; 30 days @25° C, nominal 2 μM): 0.4 µM
Measured Conc. mPD5 ([4]; 30 days @25° C, nominal 20 μM): 17 µM
Measured Conc. mPD5 ([4]; 30 days @25° C, nominal 50 μM): 48 µM
Measured Conc. mPD5 ([4]; 30 days @25° C, nominal 200 μM): 203 µM
chemically stable for ([4]; +5° C. and +25° C. in the vehicle compositions): at least 30 days
degradation ([4]; PBS, 30 days, +5° C. and +25° C.): No degradation was observed
purity after storage ([4]; samples with 200 and 50 μM, 30 days in PBS): > 98%
pain relief (paw withdrawal latency), sensitized paw ([5]; 5 hours): less pronounced
paw withdrawal latency, contralateral (healthy) paw ([5]; day 3 after CFA): no significant changes
paw withdrawal latency, sensitized (ipsilateral) paw ([5]; day 3 after CFA): highly significant increase in paw withdrawal latency
pain relief (paw withdrawal latency), sensitized paw ([5]; following day (21 h)): fully dissolved
